Measurements published in publication PMC8580996, “2-Oxoglutarate derivatives can selectively enhance or inhibit the activity of human oxygenases” (Nature Communications, 2021).
Where “and” joins values, the source holds several entries; their conditions need not be identical. Identical values can stand only once. Entries after “also recorded” stand apart in the source; their conditions may differ.

Legend:
FIH [1] = target: T1, FIH (Homo sapiens, UniProt Q9NWT6); assay: SPE-MS FIH inhibition assay; type: biochemical; details: for FIH IC50, independent replicate / IC50: source data of Table 3, single independent replicates; for IC50: read-out: FIH IC50, independent replicate; for IC50 FIH: 5.0 μM HIF-1α788-822, 10 μM 2OG, mean of two runs; as to IC50 FIH: 0.15 µM FIH
T1 sequence (Q9NWT6 whole entry): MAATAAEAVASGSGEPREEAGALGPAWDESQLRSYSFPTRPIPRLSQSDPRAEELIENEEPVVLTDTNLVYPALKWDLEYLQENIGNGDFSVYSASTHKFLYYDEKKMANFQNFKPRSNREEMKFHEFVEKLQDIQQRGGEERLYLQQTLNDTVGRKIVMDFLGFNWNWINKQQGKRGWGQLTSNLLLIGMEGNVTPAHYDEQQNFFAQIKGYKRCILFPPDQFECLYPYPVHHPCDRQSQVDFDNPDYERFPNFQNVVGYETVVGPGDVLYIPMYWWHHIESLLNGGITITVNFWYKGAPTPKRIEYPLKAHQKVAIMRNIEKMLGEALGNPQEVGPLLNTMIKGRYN
Procedure: FIH inhibition assays were performed as described, using cosubstrate/cofactor stock solutions (L-ascorbic acid, LAA: 50 mM in MQ-grade water; 2-oxoglutarate, 2OG: 10 mM in MQ-grade water; ammonium iron(II) sulfate hexahydrate, FAS, (NH4)2Fe(SO4)2·6H2O: 400 mM in 20 mM HCl diluted to 1 mM in MQ-grade water), which were freshly prepared from commercially-sourced solids (Sigma Aldrich).
Dimethyl sulfoxide (DMSO) solutions of the 2OG derivatives were dry dispensed across 384-well polypropylene assay plates (Greiner) in an approximately threefold and 11-point dilution series (100 μM top concentration; the final DMSO assay concentration was kept constant at 0.5%v/v) using an ECHO 550 acoustic dispenser (Labcyte). […] Each reaction was performed in technical duplicates in adjacent wells of the assay plates; additionally, assays were performed in two independent duplicates on different days using different inhibitor solutions.
The Enzyme Mixture (25 μL/well), containing 0.3 μM His6-FIH in buffer (50 mM Tris, 50 mM NaCl, pH 7.5), was dispensed across the inhibitor-containing 384-well assay plates with a multidrop dispenser (ThermoFischer Scientific) at 20 °C under an ambient atmosphere. The plates were subsequently centrifuged (1000 rpm, 15 s) and incubated for 15 min at 20 °C. The Substrate Mixture (25 μL/well), containing 10.0 μM HIF-1α788–822[37] substrate, 200 μM LAA, 20.0 μM 2OG, and 20.0 μM FAS in buffer (50 mM Tris, 50 mM NaCl, pH 7.5), was added using the multidrop dispenser. The plates were centrifuged (1000 rpm, 15 s) and after incubating for 15 min, the enzyme reaction was stopped by the addition of 10%v/v aqueous formic acid (5 μL/well). The plates were then centrifuged (1000 rpm, 30 s) and analyzed by MS.
(§1) MS-analyses were performed using a RapidFire RF 365 high-throughput sampling robot (Agilent) attached to an iFunnel Agilent 6550 accurate-mass quadrupole time-of-flight mass spectrometer operated in the positive ionization mode. Assay samples were aspirated under vacuum for 0.6 s and loaded onto a C4 SPE cartridge. After loading, the C4 SPE cartridge was washed with 0.1%v/v aqueous formic acid to remove non-volatile buffer salts (5.5 s, 1.5 mL/min). […] The mass spectrometer was operated using the MassHunter Workstation B.08.00 software (Agilent), the mass spectrometer parameters were: capillary voltage (4000 V), nozzle voltage (1000 V), fragmentor voltage (365 V), gas temperature (280 °C), gas flow (13 L/min), sheath gas temperature (350 °C), sheath gas flow (12 L/min). The m/z + 2 (for CA1–20) or +3 (for HIF-1α788–822) charge states of the peptide (substrate) and the hydroxylated peptide (product) were used to extract ion chromatogram data, peak areas were integrated using RapidFire Integrator 4.3.0 (Agilent). Data were exported into Microsoft Excel and used to calculate the % conversion of the hydroxylation reaction using the equation: % conversion = 100 × (integral product peptide)/(integral substrate peptide+integral product peptide). […] Z′-factors were calculated according to the cited literature using Microsoft Excel (Supplementary Fig. 26)[83].
SPE-MS FIH inhibition assays were performed as described in the Methods section.
Tris, 50 mM NaCl, pH 7.5, 20 °C). […]

FIH [2] = target: T1, FIH; assay: SPE-MS FIH turnover (cosubstrate) assay in the absence of 2OG; type: biochemical; details: 330 μM 2OG or 2OG derivative, no 2OG, t = 15 min
Procedure: The ability of 35 synthetic C3/C4-substituted 2OG derivatives, which were prepared via a reported procedure (Supplementary Fig. 1 and Supplementary Methods)[21], to sustain catalysis by purified recombinant FIH in the absence of 2OG was examined using an assay directly monitoring substrate depletion and product formation (i.e., a +16 Da mass shift) by solid-phase extraction (SPE) coupled to mass spectrometry (SPE-MS)[44],[45]. […] (i.e. CA1–20)[47], were used as FIH substrates to test for potential substrate-dependent differences in terms of cosubstrate analog selectivity.
as §1, with “Assay” for “MS-analyses were performed using a RapidFire RF 365 high-throughput sampling robot (Agilent) attached to an iFunnel Agilent 6550 accurate-mass quadrupole time-of-flight mass spectrometer operated in the positive ionization mode. Assay”, “The m/z + 2 (for CA1–20) or +3 (for HIF-1α788–822) charge states of the peptide (substrate) and the hydroxylated peptide (product) were used to extract ion chromatogram data, peak areas were integrated using RapidFire Integrator 4.3.0 (Agilent).” left out

AspH [3] = target: T2, AspH (Homo sapiens, UniProt Q12797); set-up: method as in PMID 34163896; details: hFX-CP101–119 substrate, 330 μM 2OG or 2OG derivative, t = 15 min; cited from earlier work
T2 construct: the tetratricopeptide repeat domain (His6-AspH315-758), was produced and purified as previously reported; made in house
T2 sequence (Q12797 315-758): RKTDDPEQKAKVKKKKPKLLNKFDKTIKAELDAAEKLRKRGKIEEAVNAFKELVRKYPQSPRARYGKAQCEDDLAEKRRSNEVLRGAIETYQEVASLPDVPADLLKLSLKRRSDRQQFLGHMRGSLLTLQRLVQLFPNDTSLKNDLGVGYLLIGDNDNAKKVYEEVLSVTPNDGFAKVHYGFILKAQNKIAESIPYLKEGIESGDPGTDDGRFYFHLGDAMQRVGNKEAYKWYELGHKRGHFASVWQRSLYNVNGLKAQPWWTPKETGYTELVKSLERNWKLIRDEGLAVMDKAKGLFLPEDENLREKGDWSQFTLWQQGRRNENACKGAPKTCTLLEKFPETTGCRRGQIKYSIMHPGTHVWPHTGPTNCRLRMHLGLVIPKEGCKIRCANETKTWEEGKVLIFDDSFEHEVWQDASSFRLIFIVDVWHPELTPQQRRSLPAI

FIH [4] = target: T1, FIH; assay: Competition assay in a single reaction vessel, FIH-catalyzed hydroxylation (SPE-MS); type: biochemical
Procedure: (§2) Mean of three independent runs (n = 3; mean ± SD). […] Cosubstrates: a 20 μM 2OG; b 20 μM 2OG; c 20 μM 1; d 20 μM 12; e 20 μM 12 and 100 μM 2OG; f 100 μM 14. Source data are provided as a Source Data file.
(§3) Mean of three independent runs (n = 3; mean ± SD). […] Source data are provided as a Source Data file.
(§4) Peptide turnover was monitored by SPE-MS using the same instrument configuration (with the exception that the peptides were eluted from the SPE cartridge with 0.1%v/v aqueous formic acid in 80/20 v/v acetonitrile/water) as described above.
(§5) FIH and AspH-catalyzed peptide hydroxylations were analyzed simultaneously using SPE-MS as described in the
(§6) Methods section; competition experiments were performed in the same reaction vessel using equimolar 2OG
(§7) oxygenase and substrate concentrations. […]
(§8) Source data are provided as a Source Data file.
(§9) FIH and AspH-catalyzed peptide hydroxylations were analyzed simultaneously using SPE-
(§10) MS as described in the Methods section; competition experiments were performed in the same reaction vessel
(§11) using equimolar 2OG oxygenase and substrate concentrations. […]
(§12) 2OG, 100 μM 14. Source data are provided as a Source Data file.

AspH [5] = target: T2, AspH; assay: Competition assay in a single reaction vessel, AspH-catalyzed hydroxylation (SPE-MS); type: biochemical
Procedure: as §2, §3, §4, §5, §6, §7, §8, §9, §10, §11, §12

AspH [6] = target: T2, AspH; details: 0.05 μM AspH, 1.0 μM hFX-CP101-119, 3.0 μM 2OG, ref 21 (supplementary ref 1); cited from earlier work
[7] = Fig 4d, 0.5 mM 13 and 0.5 mM 2OG, after 4 min

SMILES | FIH IC50, independent replicate (FIH [1]) | FIH activity, %-substrate conversion (FIH [2]; CA1–20 substrate) | FIH activity, %-substrate conversion (FIH [2]; HIF-1α788–822 substrate) | FIH cosubstrate activity (FIH [4]; Supplementary Fig 8b, 100 μM 28, 0 μM 2OG) | AspH conversion (AspH [5]; Supplementary Fig 8b, 100 μM 28, 0 μM 2OG, after 35 min) | effect on FIH activity (FIH [4]; Fig 4, 13 from 0 to 2.0 mM, 0.5 mM 2OG) | FIH conversion (FIH [4]; [7]) | AspH-catalyzed substrate hydroxylation (AspH [5]; Fig 4f, fourfold excess of 13 over 0.5 mM 2OG, after 4 min) [%] | AspH conversion (AspH [5]; [7]) | IC50 (FIH [1]) | IC50 FIH (FIH [1]) | AspH activity, %-substrate conversion (AspH [3]) [%] | IC50 AspH (AspH [6]) | IC50 (AspH [6]) [µM]
O=C(O)C(=O)c1ccc(C(=O)O)cc1 [compound 28, 4-Carboxyphenylglyoxylic acid] | not inhibiting | ~10% | < 1% | no cosubstrate activity | ~ 40% | – | – | – | – | – | – | ~80 | inactive; also recorded: neither inhibits AspH nor FIH catalysis | –
CC(C)(CC(=O)C(=O)O)C(=O)O [compound 13, 4,4-dimethyl-2OG] | not inhibiting | ~10% | < 1% | – | – | no effect on FIH activity | ~ 80% | < 20 | ~ 60% | – | – | <1 | – | ~0.3
CC1(C)c2ccccc2-c2ccc(CC(CC(=O)O)C(=O)C(=O)O)cc21 (stereo not drawn) [compound 11, 3-((9,9-dimethyl-9H-fluoren-2-yl)methyl)-2OG] | – | ^c<1% ^d<1% | ^c<1% ^d<1% | – | – | – | – | – | – | 1.83 µM and 1.86 µM | – | <1 | – | 4.3
O=C(O)C(=O)c1ccc(C(=O)O)c(F)c1 [compound 30] | – | ^c<1% ^d<1% | ^c<1% ^d<1% | – | – | – | – | – | – | – | inactive | ~8 | inactive | –
CCCC(CC(=O)O)C(=O)C(=O)O (stereo not drawn) [compound 3, 3-propyl-2OG] | – | ~10% | < 1% | – | – | – | – | – | – | 2.64 µM and 2.68 µM | – | <1 | – | ~5.7
O=C(O)C(=O)C12CCC(C(=O)O)(CC1)CC2 [compound 25] | – | ^c<1% ^d<1% | ^c<1% ^d<1% | – | – | – | – | – | – | – | inactive | ~8 | inactive | –

Further lines, with some results ahead:

FIH IC50, independent replicate (FIH [1]) | FIH activity, %-substrate conversion (FIH [2]; CA1–20 substrate) | FIH activity, %-substrate conversion (FIH [2]; HIF-1α788–822 substrate) | FIH cosubstrate activity (FIH [4]; Supplementary Fig 8b, 100 μM 28, 0 μM 2OG) | AspH conversion (AspH [5]; Supplementary Fig 8b, 100 μM 28, 0 μM 2OG, after 35 min) | effect on FIH activity (FIH [4]; Fig 4, 13 from 0 to 2.0 mM, 0.5 mM 2OG) | FIH conversion (FIH [4]; [7]) | AspH-catalyzed substrate hydroxylation (AspH [5]; Fig 4f, fourfold excess of 13 over 0.5 mM 2OG, after 4 min) [%] | AspH conversion (AspH [5]; [7]) | IC50 (FIH [1]) | IC50 FIH (FIH [1]) | SMILES | AspH activity, %-substrate conversion (AspH [3]) [%] | IC50 AspH (AspH [6]) | IC50 (AspH [6]) [µM]
– | ^c<1% ^d<1% | ^c<1% ^d<1% | – | – | – | – | – | – | – | inactive | Cc1cc(C(=O)O)ccc1C(=O)C(=O)O [compound 33] | ~5 | inactive | –
– | ^c<1% ^d<1% | ^c<1% ^d<1% | – | – | – | – | – | – | – | inactive | O=C(O)C(=O)c1cscc1C(=O)O [compound 34] | <1 | inactive | –
– | ^c<1% ^d<1% | ^c<1% ^d<1% | – | – | – | – | – | – | – | inactive | O=C(O)C(=O)c1ccc(C(=O)O)c(Br)c1 [compound 32] | ~8 | inactive | –
